Measurements published in PubChem BioAssay (NCI).
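Exposure lasted 48 hours, with cells grown in 96-well plates and compounds tested at five concentrations. TGI: concentration producing complete growth inhibition.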

Tests used:
Assay in all cases: NCI tumour cell line growth inhibition, 48 h
U251 CNS = tested on: U251 CNS
HT29 colon = tested on: HT29 colon
OVCAR-4 ovarian = tested on: OVCAR-4 ovarian
HCT-116 colon = tested on: HCT-116 colon
SNB-75 CNS = tested on: SNB-75 CNS
COLO 205 colon = tested on: COLO 205 colon
SW-620 colon = tested on: SW-620 colon
UACC-257 melanoma = tested on: UACC-257 melanoma
RXF 393 renal = tested on: RXF 393 renal
HCT-15 colon = tested on: HCT-15 colon
SK-MEL-5 melanoma = tested on: SK-MEL-5 melanoma
EKVX NSCLC = tested on: EKVX NSCLC
MCF7 breast = tested on: MCF7 breast
CCRF-CEM leukemia = tested on: CCRF-CEM leukemia
A498 renal = tested on: A498 renal
MALME-3M melanoma = tested on: MALME-3M melanoma
NCI-H23 lung = tested on: NCI-H23 lung
TK-10 renal = tested on: TK-10 renal
UO-31 renal = tested on: UO-31 renal
SNB-19 CNS = tested on: SNB-19 CNS

| Structure (SMILES) | TGI (U251 CNS) [µM] | TGI (HT29 colon) [µM] | TGI (OVCAR-4 ovarian) [µM] | TGI (HCT-116 colon) [µM] | TGI (SNB-75 CNS) [µM] | TGI (COLO 205 colon) [µM] | TGI (SW-620 colon) [µM] | TGI (UACC-257 melanoma) [µM] | TGI (RXF 393 renal) [µM] | TGI (HCT-15 colon) [µM] | TGI (SK-MEL-5 melanoma) [µM] | TGI (EKVX NSCLC) [µM] | TGI (MCF7 breast) [µM] | TGI (CCRF-CEM leukemia) [µM] | TGI (A498 renal) [µM] | TGI (MALME-3M melanoma) [µM] | TGI (NCI-H23 lung) [µM] | TGI (TK-10 renal) [µM] | TGI (UO-31 renal) [µM] | TGI (SNB-19 CNS) [µM] |
| --- | --- | --- | --- | --- | --- | --- | --- | --- | --- | --- | --- | --- | --- | --- | --- | --- | --- | --- | --- | --- |
| O=c1[nH]c2nnc(COc3ccc(Cl)cc3Cl)n2nc1Cc1ccccc1 | 53.1 | > 100 | > 100 | > 100 | 38.8 | > 100 | > 100 | > 100 | 44.6 | > 100 | > 100 | > 100 | > 100 | > 100 | 82 | > 100 | > 100 | 96.5 | > 100 | > 100 |
| CC(=O)C(=[N+]=[N-])C(=O)N1CCOC1=O | > 10 | > 10 | > 10 | > 10 | > 10 | > 10 | > 10 | > 10 | > 10 | > 10 | > 10 | > 10 | > 10 | > 10 | > 10 | > 10 | > 10 | > 10 | > 10 | > 10 |
| COC(=O)C(N)CCCC(N)C(=O)NC(C)C(=O)NC(CCC(=O)NCCNCCNc1c2ccccc2nc2cccc([N+](=O)[O-])c12)C(N)=O (stereo not given) | > 41.1 | 47.7 | 8.05 | 24.5 | 26.1 | 20.4 | 47.3 | 70.5 | 28.5 | 48.6 | 18.1 | 32.9 | 58.5 | > 50.9 | 40.3 | 24.8 | 9.91 | > 94.3 | 59.4 | > 67.7 |
| CC(C)OC(=O)c1ccc(CCC2=CC(=O)C=CC2=O)cc1 | 37.8 | 33.1 | 29.6 | 27 | 62.5 | 22.1 | 19.1 | 25.6 | 25.1 | 25.1 | 30 | 23.8 | 47.7 | 10.9 | 45.3 | 15.9 | 31.3 | 22.4 | 14.2 | 56.8 |
| Cc1cc(C)n(CC(Cn2nc(C)cc2C)=C(/C(Cl)=C(/Cl)Nc2ccc([N+](=O)[O-])cc2)[N+](=O)[O-])n1 | 13.5 | 11.3 | 3.4 | 14.3 | 14.3 | 5.36 | 17.7 | 12.3 | 12.3 | > 31.5 | 4.97 | 13.8 | 14.3 | 2.48 | 11.2 | 13.4 | 8.03 | 12.5 | 6.76 | 17.6 |
| COC(=O)C(NC(=O)C(CC(=O)OC(C)(C)C)NC(=O)OC(C)(C)C)C(O)c1ccccc1 (stereo not given) | > 100 | > 100 | > 100 | > 100 | > 100 | > 100 | > 100 | > 100 | > 100 | > 100 | > 100 | > 100 | > 100 | > 100 | > 100 | > 100 | > 100 | > 100 | > 100 | > 100 |
| O=P12N(CCN1c1ccccc1)CCN2c1ccccc1 | > 100 | > 100 | > 100 | > 100 | > 100 | > 100 | > 100 | > 100 | > 100 | > 100 | > 100 | > 100 | > 100 | > 100 | > 100 | > 100 | > 100 | > 100 | > 100 | > 100 |
| Cc1cn([C@@H]2C[C@@H]2CO)c(=O)[nH]c1=O | > 100 | > 100 | > 100 | > 100 | > 100 | > 100 | > 100 | > 100 | > 100 | > 100 | > 100 | > 100 | > 100 | > 100 | > 100 | > 100 | > 100 | > 100 | > 100 | > 100 |
| Oc1ccc(O)c(CNc2ccc(C(O)C(F)(F)F)cc2)c1 (stereo not given) | > 100 | > 100 | 30.3 | 32.2 | > 100 | 37.8 | > 100 | 34.6 | 26.7 | 30.7 | 76.2 | 27.8 | 69.2 | 33.5 | > 100 | 31 | 56.9 | 33.1 | 21.9 | > 100 |
| CCOC(=O)c1nc2ccc(C(F)(F)F)cc2nc1NCc1ccc(OC)cc1 | > 100 | > 100 | > 100 | > 100 | > 100 | > 100 | > 100 | > 100 | > 100 | > 100 | > 100 | > 100 | > 100 | > 100 | > 100 | > 100 | > 100 | > 100 | > 100 | > 100 |
| O=C(O)CN1C=C(C(=O)c2cc3ccccc3n2S(=O)(=O)c2ccccc2)CCC1 | > 100 | > 100 | > 100 | > 100 | > 100 | 42.5 | > 100 | > 100 | > 100 | > 100 | 71.8 | > 100 | > 100 | > 100 | > 100 | > 100 | > 100 | > 100 | > 100 | > 100 |
| O=C(NC1(c2cc3ccccc3s2)CCCCC1)C1CCC1 | > 100 | > 100 | > 100 | > 100 | > 100 | > 100 | > 100 | > 100 | > 100 | > 100 | > 100 | > 100 | > 100 | > 100 | > 100 | > 100 | > 100 | > 100 | > 100 | > 100 |
| N=C1OC(CN2CCN(c3ccccc3)CC2)CN1C(=S)Nc1ccccc1 (stereo not given) | > 100 | > 100 | > 100 | > 100 | > 100 | > 100 | > 100 | > 100 | > 100 | > 100 | > 100 | > 100 | > 100 | > 100 | > 100 | > 100 | > 100 | > 100 | > 100 | > 100 |
| C=CCN(c1cc(OCc2ccccc2)c2[nH]cc(C)c2c1)S(C)(=O)=O | > 100 | > 100 | > 100 | > 100 | 55.6 | > 100 | > 100 | > 100 | 71.4 | > 100 | > 100 | 67.9 | > 100 | > 100 | 90.9 | 88.7 | > 100 | > 100 | > 100 | > 100 |
| COC(=O)/C=C1\C(=O)N(C(C)=O)c2ccc(Br)cc21 | 20 | 25 | 25.9 | 19.8 | 21.8 | 27.8 | 25.9 | 22.8 | 21.2 | 21.7 | 23 | 32.1 | 16.8 | 4.84 | 51.6 | 35.3 | 32.4 | 14.6 | 3.91 | 27.9 |
| NC1=CN(CCCO)C2=N/C(=C\c3ccccc3)C(=O)N12 | > 100 | > 100 | > 100 | > 100 | > 100 | > 100 | > 100 | > 100 | > 100 | > 100 | > 100 | > 100 | > 100 | > 100 | > 100 | > 100 | > 100 | > 100 | > 100 | > 100 |
| N#Cc1cc(C#N)c(N)nc1N | > 100 | > 100 | > 100 | > 100 | > 100 | > 100 | > 100 | > 100 | > 100 | > 100 | > 100 | > 100 | > 100 | > 100 | > 100 | > 100 | > 100 | > 100 | > 100 | > 100 |
| COc1ccc(N=NC(=O)NC(Cc2ccccc2)C(=O)O)cc1 (stereo not given) | > 100 | > 100 | > 100 | > 100 | > 100 | > 100 | > 100 | > 100 | > 100 | > 100 | > 100 | > 100 | > 100 | > 100 | > 100 | > 100 | > 100 | > 100 | > 100 | > 100 |
| C=C1C(=O)O[C@H]2C/C(C)=C/CC[C@@]3(C)O[C@](C)(CC[C@@H]3I)[C@@H](I)C[C@@H]12 | 11.7 | 14.9 | 14.3 | 9.51 | 12.4 | 12.5 | 12.4 | 12.7 | 12.7 | 12.2 | 9.92 | 14.3 | 9.61 | 13.3 | 17.5 | 14.7 | 18.5 | 12.4 | 11.8 | 13.5 |
